Experiments:
[1] = target: T1, Glutathione hydrolase 1 proenzyme (Homo sapiens, UniProt P19440); assay: Inhibition of human GGT1 transpeptidation in Pichia pastoris using L-GpNA as substrate in presence of Gly-Gly
[2] = target: T1, Glutathione hydrolase 1 proenzyme; assay: Inhibition of human GGT1 expressed in Pichia pastoris assessed as inhibition of GSH hydrolysis measured by L-glutamate release assay
[3] = Inhibition of bovine GGT1 transpeptidation using gamma-glutamyl-p-nitroanilide in presence of Gly-Gly; design: species or system Bos taurus

T1 sequence (P19440 1-380 limits assumed): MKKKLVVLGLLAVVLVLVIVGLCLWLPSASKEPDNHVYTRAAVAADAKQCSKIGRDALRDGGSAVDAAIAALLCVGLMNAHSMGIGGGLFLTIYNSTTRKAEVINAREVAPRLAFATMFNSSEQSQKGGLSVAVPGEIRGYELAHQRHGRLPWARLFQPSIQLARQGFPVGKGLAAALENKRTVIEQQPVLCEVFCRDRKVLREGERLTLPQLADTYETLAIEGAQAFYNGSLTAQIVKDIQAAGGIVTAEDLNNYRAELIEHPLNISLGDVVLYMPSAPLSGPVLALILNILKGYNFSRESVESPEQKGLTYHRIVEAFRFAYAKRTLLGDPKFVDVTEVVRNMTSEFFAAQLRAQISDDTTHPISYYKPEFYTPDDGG
T1 sequence (P19440 381-569 limits assumed): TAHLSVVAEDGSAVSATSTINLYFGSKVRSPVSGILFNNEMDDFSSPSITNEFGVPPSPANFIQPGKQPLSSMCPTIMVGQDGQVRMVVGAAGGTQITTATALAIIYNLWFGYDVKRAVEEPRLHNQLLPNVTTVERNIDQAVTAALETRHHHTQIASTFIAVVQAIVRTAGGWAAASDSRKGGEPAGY

Compound	Ki [1]	Ki [2]	Ki [3]
O=C(O)[C@@H](CCB(O)O)NCc1ccc(S(=O)(=O)Nc2ccccc2)cc1	173 µM		
O=C(O)c1cccc(CN[C@H](CCB(O)O)C(=O)O)c1	589 µM		
N[C@H](CN[C@H](CCB(O)O)C(=O)O)Cc1ccccc1	61 µM		
N[C@@H](CN[C@H](CCB(O)O)C(=O)O)Cc1ccccc1	88 µM	508 µM	
N[C@H](CCB(O)O)C(=O)O	0.045 µM	0.077 µM	
C[C@@H](N)CN[C@H](CCB(O)O)C(=O)O	254 µM	> 1000 µM	
O=C(O)[C@@H](CCB(O)O)NCc1c[nH]cn1	26 µM	87 µM	
O=C(O)[C@@H](CCB(O)O)NCCCc1ccccc1	49 µM	108 µM	
O=C(O)[C@@H](CCB(O)O)NCc1ccccc1	202 µM	2150 µM	
COc1ccc(CN[C@H](CCB(O)O)C(=O)O)cc1	343 µM		
NCCN[C@H](CCB(O)O)C(=O)O	46 µM	260 µM	
O=C(O)[C@@H](CCB(O)O)NCCc1ccccc1	220 µM	356 µM	
N[C@@H](CCB(O)O)C(=O)O	0.0054 µM	0.025 µM	17 nM
